Measurements published in patent publication US4861788A, “Antibacterial 1-normon-2-yl-heterocyclic compounds” (Beecham Group plc, priority 1983, dated 1989).
≈ marks a conversion by molar mass, not a printed value. Where two headings read alike, the source gives them in different places.

Assays:
M. hyopneumoniae JF 435 = assay: MIC against Mycoplasma in vitro (Friis broth with agarose); format: cell-based; conditions: Mesomycoplasma hyopneumoniae, JF435, 144 h
M. hyopneumoniae HK (2) = assay: as above; format: cell-based; conditions: Mesomycoplasma hyopneumoniae, 144 h
[1] = test system: M. hyopneumoniae J2206/183^b; assay: as above; format: cell-based; conditions: Mesomycoplasma hyopneumoniae, 144 h
M. hyopneumoniae UCD 1 = assay: as above; format: cell-based; conditions: Mesomycoplasma hyopneumoniae, UCD1, 144 h
[2] = test system: M. hyopneumoniae NCTC 101101; assay: as above; format: cell-based; conditions: Mesomycoplasma hyopneumoniae, NCTC101101, 144 h
M. hyorhinis ATCC 23234 = assay: as above; format: cell-based; conditions: Mesomycoplasma hyorhinis, ATCC23234, 144 h
[3] = test system: M. hyosynoviae ATCC 25591; assay: as above; format: cell-based; conditions: 144 h
M. dispar NCTC 10125 = assay: as above; format: cell-based; conditions: 144 h
M. pneumoniae ATCC 15492 = assay: as above; format: cell-based; conditions: Mycoplasmoides pneumoniae, ATCC15492, 144 h; M. pneumoniae ATCC 15492; 6 days at 37° C; read-out: MIC
[4] = test system: Neisseria catarrhalis 1502; assay: MIC against human bacteria in vitro (nutrient agar, chocolated horse blood); format: cell-based
Outline: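 Serial dilutions in nutrient agar plus 5% chocolated horse blood served as the in vitro test system.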

E. coli NCTC 10418 = assay: MIC against veterinary bacteria in vitro (Diagnostic Sensitivity Test Agar); conditions: Escherichia coli, NCTC10418, 18 h
Experimental: (§1) The activity of the normonyl derivatives of the Examples against various veterinarily important bacteria, was assayed in vitro using two-fold serial dilutions in Diagnostic Sensitivity Test Agar inoculated with 10^4 organisms.

E. coli E1 = assay: as above; conditions: Escherichia coli, E1, 18 h
Experimental: as §1

S. dublin S7 = assay: as above; conditions: Salmonella enterica, S7, 18 h
Experimental: as §1

S. typhimurium S18 = assay: as above; conditions: Salmonella enterica, 18 h
Experimental: as §1

Bord. bronchiseptica B08 = assay: as above; conditions: Bordetella bronchiseptica, B08, 18 h
Experimental: as §1

Past. multocida PA1 = assay: as above; conditions: Pasteurella multocida, PA1, 18 h
Experimental: as §1

Past. multocida PA2 = assay: as above; conditions: Pasteurella multocida, PA2, 18 h
Experimental: as §1

[5] = test system: Corynebacterium pyogenes CY1; assay: as above; conditions: CY1, 18 h
Experimental: as §1

Staph. aureus Oxford = assay: as above; conditions: Staphylococcus aureus, 18 h
Experimental: as §1

Strep. uberis SPU1 = assay: as above; conditions: Streptococcus uberis, SPU1, 18 h
Experimental: as §1

B. subtilis ATCC 6633 = assay: as above; conditions: Bacillus subtilis, ATCC6633, 18 h
Experimental: as §1

M. hyopneumoniae NB12 = assay: MIC against Mycoplasma in vitro (Friis broth with agarose); format: cell-based; conditions: Mesomycoplasma hyopneumoniae, 144 h; M. hyopneumoniae NB12; 6 days at 37° C; read-out: MIC
[6] = test system: M. hyopneumoniae PW/C/210; assay: as above; format: cell-based; conditions: Mesomycoplasma hyopneumoniae, 144 h; M. hyopneumoniae PW/C/210; 6 days at 37° C; read-out: MIC
M. hyopneumoniae LABER = assay: as above; format: cell-based; conditions: Mesomycoplasma hyopneumoniae, 144 h
[7] = M. hyopneumoniae JF 435, 6 days at 37° C, read-out: MIC
[8] = M. hyopneumoniae HK (2), 6 days at 37° C, read-out: MIC
[9] = M. hyopneumoniae J2206/183^b, 6 days at 37° C, read-out: MIC
[10] = M. hyopneumoniae UCD 1, 6 days at 37° C, read-out: MIC
[11] = M. hyopneumoniae NCTC 101101, 6 days at 37° C, read-out: MIC
[12] = M. hyorhinis ATCC 23234, 6 days at 37° C, read-out: MIC
[13] = M. hyosynoviae ATCC 25591, 6 days at 37° C, read-out: MIC
[14] = M. dispar NCTC 10125, 6 days at 37° C, read-out: MIC

CC(=Cc1nnc(-c2ccco2)o1)CC1OCC(CC2OC2C(C)C(C)O)C(O)C1O (stereo not shown) [Example 8, 2-(2-Furyl)-5-(1-normon-2-yl)-1,3,4-oxadiazole A]
MIC (M. hyopneumoniae JF 435; [7]): 10 µg/mL (≈ 23 µM) | MIC (M. hyopneumoniae HK (2); [8]): 10 µg/mL (≈ 23 µM) | MIC [1, 9]: 10 µg/mL (≈ 23 µM) | MIC (M. hyopneumoniae UCD 1; [10]): 5 µg/mL (≈ 11.5 µM) | MIC [2, 11]: 10 µg/mL (≈ 23 µM) | MIC (M. hyorhinis ATCC 23234; [12]): 2.5 µg/mL (≈ 5.75 µM) | MIC [3, 13]: 2.5 µg/mL (≈ 5.75 µM) | MIC (M. dispar NCTC 10125; [14]): 1 µg/mL (≈ 2.3 µM) | MIC (M. pneumoniae ATCC 15492): > 10 µg/mL | MIC ([4]; human, Neisseria catarrhalis 1502, 18 hours at 37° C, read-out: MIC): 0.5 µg/mL (≈ 1.15 µM) | MIC (E. coli NCTC 10418): > 80 µg/mL | MIC (E. coli E1): > 80 µg/mL | MIC (S. dublin S7): > 80 µg/mL | MIC (S. typhimurium S18): > 80 µg/mL | MIC (Bord. bronchiseptica B08): > 80 µg/mL | MIC (Past. multocida PA1): 1.25 µg/mL (≈ 2.88 µM) | MIC (Past. multocida PA2): 0.625 µg/mL (≈ 1.44 µM) | MIC [5]: > 80 µg/mL | MIC (Staph. aureus Oxford): 80 µg/mL (≈ 184 µM) | MIC (Strep. uberis SPU1): 10 µg/mL (≈ 23 µM) | MIC (B. subtilis ATCC 6633): 10 µg/mL (≈ 23 µM)

CC(=Cc1nnc(-c2ccc(N(C)C)cc2)o1)CC1OCC(CC2OC2C(C)C(C)O)C(O)C1O (stereo not shown) [Example 10, 2-(4-Dimethylaminophenyl)-5-(1-normon-2-yl)-1,3,4-oxadiazole A]
MIC (M. hyopneumoniae JF 435): 1 µg/mL (≈ 2.05 µM) | MIC (M. hyopneumoniae HK (2)): 5 µg/mL (≈ 10.3 µM) | MIC [1]: 5 µg/mL (≈ 10.3 µM) | MIC (M. hyopneumoniae UCD 1): 2.5 µg/mL (≈ 5.13 µM) | MIC [2]: 5 µg/mL (≈ 10.3 µM) | MIC (M. hyorhinis ATCC 23234): 1 µg/mL (≈ 2.05 µM) | MIC [3]: 2.5 µg/mL (≈ 5.13 µM) | MIC (M. dispar NCTC 10125): 0.5 µg/mL (≈ 1.03 µM) | MIC (M. pneumoniae ATCC 15492): 10 µg/mL (≈ 20.5 µM) | MIC ([4]; Neisseria, 1502, 18 h): 0.5 µg/mL (≈ 1.03 µM) | MIC (E. coli NCTC 10418): > 80 µg/mL | MIC (E. coli E1): > 80 µg/mL | MIC (S. dublin S7): > 80 µg/mL | MIC (S. typhimurium S18): > 80 µg/mL | MIC (Bord. bronchiseptica B08): > 80 µg/mL | MIC (Past. multocida PA1): 40 µg/mL (≈ 82 µM) | MIC (Past. multocida PA2): 5 µg/mL (≈ 10.3 µM) | MIC [5]: > 80 µg/mL | MIC (Staph. aureus Oxford): 20 µg/mL (≈ 41 µM) | MIC (Strep. uberis SPU1): 20 µg/mL (≈ 41 µM) | MIC (B. subtilis ATCC 6633): 5 µg/mL (≈ 10.3 µM)

CC(=Cc1nc(-c2ccccc2)no1)CC1OCC(CC2OC2C(C)C(C)O)C(O)C1O (stereo not shown) [Example 15, 5-(1-Normon-2-yl)-3-phenyl-1,2,4-oxadiazole A]
MIC (M. hyopneumoniae NB12): 10 µg/mL (≈ 22.5 µM) | MIC (M. hyopneumoniae JF 435; [7]): 10 µg/mL (≈ 22.5 µM) | MIC (M. hyopneumoniae HK (2); [8]): 10 µg/mL (≈ 22.5 µM) | MIC [1, 9]: 10 µg/mL (≈ 22.5 µM) | MIC [6]: 5 µg/mL (≈ 11.2 µM) | MIC (M. hyopneumoniae LABER; M. hyopneumoniae LABER, 6 days at 37° C, read-out: MIC): 5 µg/mL (≈ 11.2 µM) | MIC (M. hyopneumoniae UCD 1; [10]): 10 µg/mL (≈ 22.5 µM) | MIC [2, 11]: 10 µg/mL (≈ 22.5 µM) | MIC (M. hyorhinis ATCC 23234; [12]): 5 µg/mL (≈ 11.2 µM) | MIC [3, 13]: 10 µg/mL (≈ 22.5 µM) | MIC (M. dispar NCTC 10125; [14]): 2.5 µg/mL (≈ 5.62 µM) | MIC (M. pneumoniae ATCC 15492): > 10 µg/mL | MIC (E. coli NCTC 10418): > 80 µg/mL | MIC (E. coli E1): > 80 µg/mL | MIC (S. dublin S7): > 80 µg/mL | MIC (S. typhimurium S18): > 80 µg/mL | MIC (Bord. bronchiseptica B08): > 80 µg/mL | MIC (Past. multocida PA1): 40 µg/mL (≈ 90 µM) | MIC [5]: > 80 µg/mL | MIC (Staph. aureus Oxford): 40 µg/mL (≈ 90 µM) | MIC (Strep. uberis SPU1): 2.5 µg/mL (≈ 5.62 µM)

CC(=Cc1nc(-c2ccc([N+](=O)[O-])cc2)no1)CC1OCC(CC2OC2C(C)C(C)O)C(O)C1O (stereo not shown) [Example 16, 5-(1-Normon-2-yl)-3-(4-nitrophenyl)-1,2,4-oxadiazole]
MIC (M. hyopneumoniae JF 435; [7]): 1 µg/mL (≈ 2.04 µM) | MIC [1, 9]: 0.5 µg/mL (≈ 1.02 µM) | MIC (M. hyopneumoniae LABER): 0.25 µg/mL (≈ 0.511 µM) | MIC (M. hyopneumoniae UCD 1): 0.5 µg/mL (≈ 1.02 µM) | MIC [2]: 1 µg/mL (≈ 2.04 µM) | MIC (M. hyorhinis ATCC 23234; [12]): 0.25 µg/mL (≈ 0.511 µM) | MIC [3, 13]: 5 µg/mL (≈ 10.2 µM) | MIC (M. dispar NCTC 10125): 0.1 µg/mL (≈ 0.204 µM) | MIC (M. pneumoniae ATCC 15492): > 10 µg/mL | MIC (E. coli NCTC 10418): > 80 µg/mL | MIC (E. coli E1): > 80 µg/mL | MIC (S. dublin S7): > 80 µg/mL | MIC (S. typhimurium S18): > 80 µg/mL | MIC (Bord. bronchiseptica B08): 80 µg/mL (≈ 163 µM) | MIC (Past. multocida PA1): 5 µg/mL (≈ 10.2 µM) | MIC [5]: > 80 µg/mL | MIC (Staph. aureus Oxford): 2.5 µg/mL (≈ 5.11 µM) | MIC (Strep. uberis SPU1): 2.5 µg/mL (≈ 5.11 µM) | MIC (B. subtilis ATCC 6633): 2.5 µg/mL (≈ 5.11 µM)

CC(=Cc1noc(-c2ccccc2)n1)CC1OCC(CC2OC2C(C)C(C)O)C(O)C1O (stereo not shown) [Example 17, 3-(1-Normon-2-yl)-5-phenyl-1,2,4-oxadiazole]
MIC (M. hyopneumoniae JF 435; [7]): 5 µg/mL (≈ 11.2 µM) | MIC [1, 9]: 2.5 µg/mL (≈ 5.62 µM) | MIC (M. hyopneumoniae UCD 1): 2.5 µg/mL (≈ 5.62 µM) | MIC [2, 11]: 2.5 µg/mL (≈ 5.62 µM) | MIC (M. hyorhinis ATCC 23234; [12]): 2.5 µg/mL (≈ 5.62 µM) | MIC [3, 13]: 1 µg/mL (≈ 2.25 µM) | MIC (M. dispar NCTC 10125; [14]): 0.5 µg/mL (≈ 1.12 µM) | MIC (M. pneumoniae ATCC 15492): > 10 µg/mL | MIC (E. coli NCTC 10418): > 80 µg/mL | MIC (E. coli E1): > 80 µg/mL | MIC (S. dublin S7): > 80 µg/mL | MIC (S. typhimurium S18): > 80 µg/mL | MIC (Bord. bronchiseptica B08): > 80 µg/mL | MIC (Past. multocida PA1): 2.5 µg/mL (≈ 5.62 µM) | MIC [5]: > 80 µg/mL | MIC (Staph. aureus Oxford): 2.5 µg/mL (≈ 5.62 µM) | MIC (Strep. uberis SPU1): 0.625 µg/mL (≈ 1.41 µM) | MIC (B. subtilis ATCC 6633): 0.625 µg/mL (≈ 1.41 µM)
